A short description of data set [1]: solubility in pharmaceutically acceptable solvent systems, HPLC assay of filtrate. In kind it is physicochemical. The protocol:
The solubilities of NUC-1031 and its diastereoisomers were determined in a range of pharmaceutically acceptable solvent systems. The protocol adopted was as follows:
A small volume, 1-2 mL, of each solvent system was prepared and a weight of the compound in question was added. The solutions were stirred for approximately 4 hours and then […] membrane filtered. The concentration of the compound in question in the filtrate was then determined by HPLC assay.

Data set [2] is described as follows: metabolic stability in pooled human cryopreserved hepatocyte suspension, HPLC-MS/MS. Type of data set: in vitro ADME. The conditions noted are these: both sexes, human, hepatocytes. The protocol: (§1) The clearance and bioavailability of most medicines are strongly influenced by their first-pass metabolism in the liver. It is possible to estimate the relative hepatic “metabolic stability” in vitro by incubating compounds with cryopreserved hepatocytes and determining the initial vs. the final amount of the test compound in the incubation mixtures.
(§2) The following procedure is an HPLC-MS/MS assay using pooled human cryopreserved hepatocyte suspension.
(§3) Human hepatocytes: mixed gender and pool of 10
(§4) Final cell density: 1 million (10^6) viable cells/mL
(§5) Pooled cryopreserved hepatocytes are thawed, washed, and resuspended in Krebs-Heinslet buffer (pH 7.3). The reaction is initiated by adding the test compound (1 μM final concentration) into cell suspension and incubated in a final volume of 100 μL on a flat-bottom 96-well plate for 0 minute and 120 minutes, respectively, at 37° C./5% CO2. The reaction is stopped by adding 100 μL of acetonitrile into the incubation mixture. Samples are then mixed gently and briefly on a plate shaker, transferred completely to a 0.8 mL V-bottom 96-well plate, and centrifuged at 2550×g for 15 minutes at room temperature. Each supernatant (150 μL) is transferred to a clean cluster tube, followed by HPLC-MS/MS analysis on a Thermo Electron triple-quadrupole system.
(§6) This assay was modified for half-life determination. In this case, the sampling time points are 0, 30, 60, 90, and 120 minutes.
(§7) Four reference compounds (1 μM) were tested simultaneously with the test compounds.
(§8) Samples are analyzed via (RP)HPLC-MS/MS using selected reaction monitoring (SRM). The HPLC conditions consist of an HP1100 binary pump with autosampler, a C-12 mixed-mode, 2×20 mm column, and a gradient.
(§9) Peak areas corresponding to the test compound are recorded by HPLC-MS/MS. The metabolic stability, expressed as percent of the test compound remaining, is calculated by comparing the peak areas of the test compound at 2 hours to time zero. In case of half-life determination, the half-life is estimated from the slope of the initial linear range of the logarithmic curve of the test compound remaining (%) vs. time, assuming first order kinetics.

The nature of data set [3]: aqueous solubility of NUC-1031 (background statement). The conditions noted are these: regardless of salt content or pH. In kind it is physicochemical.
Data set [4] concerns pooled human cryopreserved hepatocytes. As to the kind of experiment: metabolic stability in pooled human cryopreserved hepatocyte suspension, HPLC-MS/MS. Type of data set: in vitro ADME. The conditions noted are these: reference compounds, 1 μM. The protocol: as §1, §2, §3, §4, §5, §6, §7, §8, §9
Setting [5] is: 10% mixtures of polar organic solvents in water.
Where [6] appears, read: 50% PEG400 by volume in water, aqueous with cosolvent or surfactant or cyclodextrin, thermodynamic from solid, PEG400 (50%) by volume in water, read-out: Solubility.
Where [7] appears, read: 50% ethanol by volume in water, aqueous with cosolvent or surfactant or cyclodextrin, thermodynamic from solid, ETHANOL (50%) by volume in water, read-out: Solubility.
Setting [8] is: 50% propylene glycol by volume in water, aqueous with cosolvent or surfactant or cyclodextrin, thermodynamic from solid, PROPYLENE GLYCOL (50%) by volume in water, read-out: Solubility.
Where [9] appears, read: mixtures of polar organic solvents with water.

Each structure is given as a SMILES string. Converted amounts (≈) assume the structure as drawn. Where two headings read alike, the source gives them in different places.

On to `C[C@H](NP(=O)(OC[C@H]1O[C@@H](n2ccc(N)nc2=O)C(F)(F)C1O)Oc1ccccc1)C(=O)OCc1ccccc1` (stereo partly shown) [NUC-1031], for which the solubility in data set [1] (organic solvent or mixture, thermodynamic from solid, solvent DMSO, read-out: Assay (solubility)) is above 217000 µg/mL; in data set [1] (organic solvent or mixture, thermodynamic from solid, solvent NMP, read-out: Assay (solubility)) it was above 207000 µg/mL; in data set [1] (organic solvent or mixture, thermodynamic from solid, solvent PEG 400, read-out: Assay (solubility)) it was 385000 µg/mL (≈ 663 mM); in data set [1] (organic solvent or mixture, thermodynamic from solid, solvent Propylene glycol, read-out: Assay (solubility)), 371000 µg/mL (≈ 639 mM). Moreover, the Appearance result in data set [1] (solvent DMSO) is on record as “Clear solution”; in data set [1] (solvent Ethanol) it was “Solubilised quickly, after 30”; in data set [1] (solvent Glycerol), “API evident”; in data set [1] (solvent NMP) it was “Clear solution”; in data set [1] (solvent PEG 400), “Precipitation evident after 120”; in data set [1] (solvent Propylene glycol) it was “Precipitation evident after 30”. Moreover, the half-life at 1 μM was determined as 1.22 h in data set [2] (pH 7.3, Half-Life 1st); 1.21 h in data set [2] (pH 7.3, Half-Life 2nd); 1.37 h in data set [2] (pH 7.3, Half-Life 3rd). Moreover, the “solubility in water” value in data set [3] is “essentially insoluble in water”.

For the compound `C[C@H](N[P@](=O)(OC[C@H]1O[C@@H](n2ccc(N)nc2=O)C(F)(F)C1O)Oc1ccccc1)C(=O)OCc1ccccc1` (stereo partly drawn) [compound 3, 2′-Deoxy-2′,2′-difluoro-D-cytidine-5′-O-[phenyl(benzyloxy-L-alaninyl)]-(S)-phosphate], the solubility was 460 µg/mL (≈ 0.792 mM) in data set [1] (10% PEG400 by volume in water, aqueous with cosolvent or surfactant or cyclodextrin, thermodynamic from solid, PEG400 (10%) by volume in water, read-out: Solubility); 270 µg/mL (≈ 0.465 mM) in data set [1] (10% ethanol by volume in water, aqueous with cosolvent or surfactant or cyclodextrin, thermodynamic from solid, ETHANOL (10%) by volume in water, read-out: Solubility); “significantly improved solubility” in data set [1] (setting [5]); 230 µg/mL (≈ 0.396 mM) in data set [1] (10% propylene glycol by volume in water, aqueous with cosolvent or surfactant or cyclodextrin, thermodynamic from solid, PROPYLENE GLYCOL (10%) by volume in water, read-out: Solubility); 32100 µg/mL (≈ 55.4 mM) in data set [1] (setting [6]); 34800 µg/mL (≈ 59.9 mM) in data set [1] (setting [7]). Further, the figures for the solubility in data set [1] (setting [8]) and in data set [1] (setting [9]) were 11300 µg/mL (≈ 19.4 mM) and “sufficient solubility”, respectively. In data set [1] (in a number of the solvent mixtures tested), the “difference in solubility between (S)-epimer and (R)-epimer” value is listed as “over 100 fold”. Besides, the half-life at 1 μM stood at 0.675 h in data set [2] (pH 7.3, Half-Life 1st); 0.608 h in data set [2] (pH 7.3, Half-Life 2nd); 0.583 h in data set [2] (pH 7.3, Half-Life 3rd).

Turning to `C[C@H](N[P@@](=O)(OC[C@H]1O[C@@H](n2ccc(N)nc2=O)C(F)(F)[C@@H]1O)Oc1ccccc1)C(=O)OCc1ccccc1` [compound 4, 2′-deoxy-2′,2′-difluoro-D-cytidine-5′-O-[phenyl(benzyloxy-L-alaninyl)]-(R)-phosphate], the “solubility” value was “substantially insoluble” in data set [1] (setting [5]); 270 µg/mL (≈ 0.465 mM) in data set [1] (setting [6]); 690 µg/mL (≈ 1.19 mM) in data set [1] (setting [7]); 110 µg/mL (≈ 0.189 mM) in data set [1] (setting [8]); “substantially insoluble” in data set [1] (setting [9]). In addition, the half-life at 1 μM in data set [2] (pH 7.3, Half-Life 1st) was 7.86 h; in data set [2] (pH 7.3, Half-Life 2nd), above 2 h; in data set [2] (pH 7.3, Half-Life 3rd) it was above 2 h; in data set [2] (pH 7.3, Half-Life Mean) it was above 2 h.

Take `CCN(CC)CCN1C(=O)CN=C(c2ccccc2F)c2cc(Cl)ccc21` [flurazepam, reference compound]: in data set [4], the “stability with human hepatocytes” value is “relatively unstable”.

On to `C=CCN1CC[C@]23c4c5ccc(O)c4O[C@H]2C(=O)CC[C@@]3(O)[C@H]1C5` [naloxone, reference compound], for which, in data set [4], the “stability with human hepatocytes” value is “relatively unstable”.

As a reminder, the solubility is the concentration that dissolves in the medium under given conditions. By half-life is commonly meant how long it takes for the measured level to halve. Low values mean rapid decline, high ones slow decline.

The values above are taken from patent US11629164B2, “Gemcitabine prodrugs” (NuCana plc, priority 2014, dated 2023).
